According to patent US10604487B2, “Pyridinol derivative or pharmaceutically acceptable salt thereof, and pharmaceutical composition containing same as active ingredient” (Research Cooperation Foundation of Yeungnam University, priority 2016, dated 2020):
Read-outs that look alike come from different tables or passages of the source.

Columns and labels:
[1] = Cytotoxicity test (MTT), U937; format: cell-based; conditions: human, U937, 48 h; for viability at 48 h, 0.01 µM / viability at 48 h, 0.1 µM / viability at 48 h, 1 µM / viability at 48 h, 10 µM / viability at 48 h, 100 µM: U937 cells (monocytic blood cancer-derived cell line), read-out: Cell viability (% of control); for IC50 at 48 h: U937 cells
Protocol: (§1) The human colorectal cancer cell line HT-29 and the monocytic blood cancer-derived cell line U937 were cultured in a RPMI 1640 medium containing 10% FBS and 1% penicillin/streptomycin (PS) at 37° C. under a condition of 5% CO2, and when the cells used herein were grown to 80% or more, they were subcultured at a ratio of 1:3.
(§2) Each type of cells were cultured in a 96 well plate at a concentration of 1×10^5 cells/cm2, treated with a test compound by concentration in a medium only containing 1% FBS and 1% PS at 37° C. under a condition of 5% CO2 for 48 hours and reacted with 5 mg/mL of a 3-[4,5-dimethylthiazol-2-yl]-2,5-diphenyltetrazolium bromide (MTT) reagent for 4 hours, and then the medium was completely removed, the cells were treated with DMSO, formazan crystals were dissolved for 30 minutes, and then absorbance was measured at 540 nm.

[2] = Cytotoxicity test (MTT), HT-29; format: cell-based; conditions: human, HT-29, 48 h; for viability at 48 h, 0.01 µM / viability at 48 h, 0.1 µM / viability at 48 h, 1 µM / viability at 48 h, 10 µM / viability at 48 h, 100 µM: HT-29 cells (colorectal cancer cell line), read-out: Cell viability (% of control); for IC50 at 48 h: HT-29 cells, read-out: IC50 (μM), cytotoxicity
Protocol: as §1, §2

[3] = system: TNF-α-induced adhesion of monocytes to intestinal epithelial cells; assay: Inhibitory activity against TNF-α-induced adhesion of monocytes (U937) to intestinal epithelial cells (HT-29); format: cell-based, human; conditions: Homo sapiens
Protocol: HT-29 human colorectal cancer-derived epithelial cells and U937 human-derived monocytic cells were cultured in an RPMI 1640 medium containing 10% FBS and 1% penicillin/streptomycin (PS) at 37° C. under a condition of 5% CO2, and when the cells were grown to 80% or more in a culture flask, they were subcultured in a ratio of 1:3 to be used in this test. The HT-29 cells were cultured in a 24-well plate at a concentration of 2×10^5 cells/cm2, and then the medium only containing 1% FBS and 1% PS was pretreated with a test drug for 1 hour. Afterward, BCECF-loaded U937 cells by being treated with 10 μg/mL of BCECF-AM at 37° C. for 30 minutes and 10 ng/mL of TNF-α reacted with the HT-29 cells previously treated with the test drug at 37° C. for 3 hours. After the reaction, the medium was removed, and then the cells were washed with PBS twice to remove U937 cells that were not adhered. In a subsequent step, for cell lysis, 0.1% Triton X-100 (0.1 M Tris) was treated to allow a reaction at room temperature for 30 minutes, and then fluorescence was measured using a Fluostar optima microplate reader (BMG LABTECH, Germany) to quantify the cells (Carvalho et al., 1996; Thapa et al., 2008).

[4] = 1 μM test drug, HT-29/U937 adhesion, 10 ng/mL TNF-α, read-out: Inhibitory activity (%)

SMILES	viability at 48 h, 0.01 µM [1]	viability at 48 h, 0.1 µM [1]	viability at 48 h, 1 µM [1]	viability at 48 h, 10 µM [1]	viability at 48 h, 100 µM [1]	IC50 at 48 h [1]	viability at 48 h, 0.01 µM [2]	viability at 48 h, 0.1 µM [2]	viability at 48 h, 1 µM [2]	viability at 48 h, 10 µM [2]	viability at 48 h, 100 µM [2]	IC50 at 48 h [2]	inhibition at 1 µM ([3]; 1 μM, Table 8, read-out: 1 μM concentration inhibitory activity)	IC50 ([3]; HT-29/U937 adhesion, TNF-α-induced, read-out: IC50 (adhesion inhibition))	inhibition at 1 µM [3, 4]
Cc1nc(NS(=O)(=O)c2cccc3ccccc23)c(C)c(C)c1O [Compound 22-5, N-(5-hydroxy-3,4,6-trimethylpyridin-2-yl)naphthalene-1-sulfonamide]	102 ± 5.4%	93.4 ± 1.2%	92.6 ± 0.9%	85.1 ± 3.1%	62.5 ± 2%	> 100 µM	95.2 ± 3.3%	86.7 ± 6.5%	87.8 ± 3.2%	89.1 ± 3.5%	88.8 ± 1.2%	> 100 µM	80.6%	0.23 µM	
Cc1nc(NS(=O)(=O)c2ccc([N+](=O)[O-])cc2)c(C)c(C)c1O [Compound 22-4, N-(5-hydroxy-3,4,6-trimethylpyridin-2-yl)-4-nitrobenzenesulfonamide]	95.2 ± 4.6%	93.3 ± 0.8%	80.2 ± 11.7%	84.7 ± 1.7%	70.6 ± 0.4%	> 100 µM	96.6 ± 1.3%	97.8 ± 2.4%	96.3 ± 1.7%	85.4 ± 6.7%	64.8 ± 7.1%	> 100 µM			-2.3%
Cc1ccc(S(=O)(=O)Nc2nc(C)c(O)c(C)c2C)cc1 [Compound 22-2, N-(5-hydroxy-3,4,6-trimethylpyridin-2-yl)-4-methylbenzenesulfonamide]	96.6 ± 1.6%	94.5 ± 6.3%	96.1 ± 3.8%	90.5 ± 1.7%	60.9 ± 1.7%	> 100 µM	77.1 ± 3%	76.9 ± 4%	73.8 ± 5.8%	71.5 ± 4.6%	62.8 ± 0.5%	> 100 µM			42.1%
Cc1nc(NC(=O)NS(=O)(=O)c2ccccc2)c(C)c(C)c1O [Compound 16-6, N-((5-hydroxy-3,4,6-trimethylpyridin-2-yl)carbamoyl)benzenesulfonamide]	91.6 ± 2.6%	94.3 ± 2.6%	85.8 ± 2.7%	83.5 ± 1.1%	84.9 ± 2%	> 100 µM	90 ± 3.5%	85.4 ± 0.9%	76 ± 7.2%	77.9 ± 3.5%	53.6 ± 2.5%	> 100 µM			17.5%
Cc1cccc(C(C)(C)C)c1NC(=O)Nc1nc(C)c(O)c(C)c1C [Compound 16-4, 1-(2-tert-butyl-6-methylphenyl)-3-(5-hydroxy-3,4,6-trimethylpyridin-2-yl)urea]	95 ± 2.9%	91.2 ± 1.9%	91.3 ± 1.2%	85.4 ± 0.2%	75.5 ± 1.7%	> 100 µM	76.6 ± 6.9%	76.8 ± 5%	74.7 ± 6%	62.1 ± 2.9%	43.6 ± 1.8%	34.7 µM			34.3%
CCCCNC(=S)Nc1nc(C)c(O)c(C)c1C [Compound 18-1, 1-butyl-3-(5-hydroxy-3,4,6-trimethylpyridin-2-yl)thiourea]	95.4 ± 0.6%	94.9 ± 1.2%	92.9 ± 0.6%	91 ± 0.9%	55 ± 1.1%	> 100 µM	93.5 ± 3.4%	95.2 ± 1.7%	96.9 ± 1.4%	96.5 ± 2.3%	60.3 ± 0.5%	> 100 µM			-19.9%
Cc1nc(NC(=O)Nc2ccc(Cl)cc2)c(C)c(C)c1O [Compound 16-3, 1-(4-Chlorophenyl)-3-(5-hydroxy-3,4,6-trimethylpyridin-2-yl)urea]	89.4 ± 2.7%	89.7 ± 3.1%	81 ± 3.1%	81 ± 2.2%	66 ± 0.1%	> 100 µM	104 ± 6.1%	102 ± 6.4%	103 ± 11.1%	89.3 ± 4.8%	69.2 ± 6.1%	> 100 µM			7.7%
COCCOC(=O)Nc1nc(C)c(O)c(C)c1C [Compound 20-5, 2-methoxyethyl (5-hydroxy-3,4,6-trimethylpyridin-2-yl)carbamate]	85.4 ± 4.4%	84.2 ± 4.1%	81.2 ± 0.7%	79.9 ± 0.8%	77.9 ± 0.8%	> 100 µM	89.7 ± 1.2%	83.2 ± 2.6%	84.7 ± 1.6%	85.5 ± 3.3%	82.3 ± 1.1%	> 100 µM			-22.5%
Cc1nc(NC(=O)OCCCl)c(C)c(C)c1O [Compound 20-4, 2-Chloroethyl (5-hydroxy-3,4,6-trimethylpyridin-2-yl)carbamate]	86.1 ± 3.1%	82.7 ± 1%	83.4 ± 1.3%	83 ± 0.5%	79.2 ± 1.3%	> 100 µM	97.4 ± 2.2%	94.7 ± 3.3%	88.6 ± 2.2%	90.2 ± 5.3%	86.7 ± 3.1%	> 100 µM			-1.5%
CCCCOC(=O)Nc1nc(C)c(O)c(C)c1C [Compound 20-2, butyl (5-hydroxy-3,4,6-trimethylpyridin-2-yl)carbamate]	87.4 ± 1.3%	84.4 ± 2.3%	84.6 ± 2%	80.7 ± 0.8%	74.4 ± 3.8%	> 100 µM	102 ± 1.4%	102 ± 3.2%	98.1 ± 3.4%	98.3 ± 3.8%	67.6 ± 1.9%	> 100 µM			26.9%
Cc1nc(NS(C)(=O)=O)c(C)c(C)c1O [Compound 22-1, N-(5-hydroxy-3,4,6-trimethylpyridin-2-yl)methanesulfonamide]	97.6 ± 5%	94.8 ± 3.8%	95.7 ± 2.4%	94.4 ± 0.4%	94.4 ± 2.5%	> 100 µM	87.6 ± 3.3%	75.7 ± 8.2%	76.1 ± 3.6%	63.5 ± 1.8%	43 ± 1.9%	50.1 µM			18.7%
Cc1nc(NC(=S)Nc2ccc(Cl)cc2)c(C)c(C)c1O [Compound 18-6, 1-(4-chlorophenyl)-3-(5-hydroxy-3,4,6-trimethylpyridin-2-yl)thiourea]	99.6 ± 0.5%	96.8 ± 1.9%	91.6 ± 2.6%	86.4 ± 1.7%	80.7 ± 2.5%	> 100 µM	95.2 ± 3.2%	86.6 ± 4.9%	83.6 ± 3.3%	72.8 ± 2.8%	65.3 ± 1.9%	> 100 µM			≥ 50%
